US8222241B2, “Use of dimiracetam in the treatment of chronic pain” (priority 2007, dated 2012)
Where two headings read alike, the source gives them in different places.

Experiments:
[1] = tested on: rats motor coordination; experiment: Motor coordination in rats (rotarod); type: in vivo, Sprague Dawley rats
Experimental: The rotarod test allows the evaluation of the effects of a compound on motor coordination. Adult male Sprague Dawley rats (200-220 g, supplier Harlan, Milan) were placed on a plastic rod 6 cm in diameter and 35 cm in length, rotating at constant speed (16 rpm) at a height of 25 cm. The rod is divided in 4 equal sections, thus up to 4 animals may be tested simultaneously. The animals were required to walk against the motion of the rotating drum over 30 seconds. The time taken to fall off the rotarod was recorded as number of falls in 30 seconds, following the method of Vaught et al. 1985, Neuropharmacology 24:211-216. In each experiment motor coordination is measured before (pre-test) and after administration of the tested compound. Rats scoring less than 3 and more than 6 falls in the pretest are rejected.

[2] = Rotarod/ataxia test in rats; settings: rat, in vivo, po
Experimental: (§1) Neurological deficits were evaluated by the inability of the rats to remain on the rotating rod (10 rpm) for the test period.

[3] = tested on: oxaliplatin-induced neuropathy; experiment: Oxaliplatin-induced neuropathy in rats, paw pressure test; type: in vivo, Sprague-Dawley rats; settings: 300 mg/kg p.o. once a day
Experimental: Paw pressure test was performed 4 days after the last injection (Marchand F. et al. 2003, Brain Res. 980:117-120). • Taxol: taxol neuropathy was induced by intraperitoneal administration of 0.5 mg/kg once a day, on days 1, 3, 5 and 8. […] The pharmacological test was performed 14-18 days after the last taxol injection (Polomano R. C. et al. 2001, Pain 94:293-304). • Oxaliplatin: 2.4 mg/kg were injected by intraperitoneal route for 5 consecutive days followed by 2 days suspension (one cycle). A total of 3 cycles was performed, reaching a cumulative dose of 36 mg/kg (Cavaletti G. 2001, Eur. J. Cancer 37:2457-2463). The test was performed 48 h after the last oxaliplatin injection. 1.2 Antiviral-Induced Neuropathy […] The nociceptive threshold was determined with an analgesimeter (Ugo Basile, Italy), exerting a force that increases at constant rate (32 g/s) according to the method described by Leighton G. E. 1988, Br. J. Pharmacol. 93:553-560. The stimulus causing paw withdrawal was evaluated before and at different times after treatment. Results represent the mean of mechanical thresholds expressed as grams. To avoid any possible damage to the animal paw the maximum applied force was fixed at 240 g. The effect of […] evaluated in the oxaliplatin-induced neuropathy model after repeated administration with the paw pressure test.

[4] = tested on: ddC-induced neuropathy; experiment: ddC-induced (antiviral-induced) neuropathy, von Frey test; type: in vivo, Sprague Dawley rats; settings: 100 mg/kg
Experimental: (§2) Adult male Sprague Dawley rats (150-200 g, supplier Harlan) were treated by intravenous route with a single administration of 25 mg/kg of nucleoside reverse transcriptase inhibitors ddC (2′,3′-dideoxycytidine) or d4T (2′,3′-didehydro-3′-deoxythymidine). Administration of these anti-HIV drugs induced a marked allodynic response to a mechanical stimulus (Joseph E. K. 2004, Pain 107:147-158). The maximum reduction of the paw pressure threshold is developed between day 5 and day 10 after injection. The test was performed on day 10.
Rats (male adult Sprague Dawley rats, 150-200 g, supplier Harlan) were placed in a chamber with a mesh metal floor covered by a plastic dome that enabled the animals to walk freely, but not to jump. The mechanical stimulus was delivered in the mid-plantar skin of left hind paw using an electronic von Frey apparatus. The cut-off was fixed at 50 g, while the increasing force rate (ramp duration) was settled at 20 sec.

[5] = tested on: MIA-induced osteoarthritic pain; experiment: MIA-induced osteoarthritic pain in rats, paw pressure test; type: in vivo, Sprague Dawley rats
Experimental: Osteoarthritis was induced by a single administration of 2 mg (in a volume of 25 μl) of sodium 2-iodoacetate into the left knee joint of anaesthetized rats (male adult Sprague Dawley rats, 150-200 g, supplier Harlan) (Fernihough J. 2004, Pain 112:83-93). This treatment induces the progressive degeneration of the joint and the development of hyperalgesia, mimicking at the histological and behavioral levels what observed in humans. Pharmacological test was performed 7 days after treatment.
(§3) Mechanical hyperalgesia in rats (male adult Sprague Dawley rats, 150-200 g, supplier Harlan) was determined using the paw pressure test. The nociceptive threshold was determined with an analgesimeter (Ugo Basile, Italy), exerting a force that increases at constant rate (32 g/s) according to the method described by Leighton G. E. 1988, Br. J. Pharmacol. 93:553-560. The stimulus causing paw withdrawal was evaluated before and at different times after treatment. Results represent the mean of mechanical thresholds expressed as grams. To avoid any possible damage to the animal paw the maximum applied force was fixed at 240 g.

[6] = tested on: rats; experiment: Rotarod/ataxia test in rats; settings: p.o., rotating rod 10 rpm
Experimental: as §1

[7] = tested on: rats; experiment: Irwin test in rats; type: in vivo, Sprague Dawley rats
Experimental: To verify if the administration of the compound may induce centrally mediated side effects, adult male Sprague Dawley rats (150-200 g, supplier Harlan) were treated with dimiracetam by subcutaneous and oral routes and monitored according to the “Irwin test” protocol (Irwin 1968, Psychopharmacologia 13:222-257), a systematic and quantitative procedure for assessing the behavioral and physiological modifications induced in animals by the drug treatment.
Rats were constantly monitored for 30 min after administration. Monitoring was iterated every morning at 9 a.m. for 4 days after administration.

[8] = tested on: mice; experiment: Hole board test in mice; type: in vivo, Swiss Webster mice; settings: 30 min after oral administration
Source text: The hole board test allows to study the behavior of rodents when confronted with a new environment (Boissier J R 1964, Therapie 19:571-583). The test enables to evaluate the initial exploratory activity of the animal and its possible variations induced by drug administration.
The hole board test uses a 40 cm square plane with 16 flush-mounted cylindrical holes (diameter 3 cm) distributed 4 by 4 in an equidistant, grid-like manner. Mice (male Swiss Webster mice weighing 25-30 g, supplier Morini) are placed one by one in the center of the board and allowed to move freely, each for a period of 5 min. Two photoelectric beams, crossing the plane from mid-point to mid-point of opposite sides, and thus dividing the plane into four equal quadrants, automatically record the movements of the animals on the plane surface. Miniature photoelectric cells in each of the 16 holes record the exploration of the holes (head plunging activity) by the mice.

[9] = tested on: Sprague Dawley rats; settings: rat, in vivo, 3000 mg/kg
[10] = tested on: Sprague Dawley rats; settings: rat, in vivo, po, 2500 mg/kg/day
[11] = tested on: Cynomolgus monkeys; settings: cynomolgus monkey, in vivo, po, 2000 mg/kg/day
[12] = oral doses greater than 10 mg/kg (J. Med. Chem., 1993, 36:4214-4220); cited from earlier work
[13] = tested on: ddC-induced neuropathy; experiment: ddC-induced neuropathy, paw pressure test; type: in vivo, Sprague Dawley rats; settings: 300 mg/kg orally
Experimental: as §2
as §3, with “To avoid any possible damage to the animal paw the maximum applied force was fixed at 240 g.” left out
Dimiracetam is a racemic compound; the two corresponding enantiomers were synthesized and separately tested in the ddC-induced neuropathy model. The two compounds were administered orally at doses of 150 and 300 mg/kg and their antihyperalgesic activity was evaluated with the paw pressure test.

[14] = 150 mg/kg, 15-30 min after administration

N#Cc1cccc(N2C(=O)CN3C(=O)CCC32)c1 (stereo not shown) [I-(3-cyanophenyl)-tetrahydropyrrolo[1,2-a]imidazole-2,5-dione]
dose from which the number of falls is increased (rotarod) ([1]; rat, in vivo): 300 mg/kg | motor coordination (number of falls in 30 sec, rotarod) ([1]; starting from the dose of 300 mg/kg): significantly altered animals motor coordination

COc1cccc(C2(O)CCCCC2CN(C)C)c1 (stereo not shown) [tramadol]
TD50 [2]: 253 mg/kg

O=C1CN2C(=O)CCC2N1 (racemic) [dimiracetam, 2,5-dioxohexahydro-1H-pyrrolo[1,2-a]imidazole]
time after administration at which effect was statistically significant [3]: between 30 min and 4 h | mechanical hyperalgesia (paw pressure test) ([3]; starting three days before oxaliplatin treatment and during it): significantly reduced mechanical hyperalgesia | ddC-induced allodynia (von Frey mechanical threshold) ([4]; 15-30 min after administration): fully reverted ddC-induced allodynia | ddC-induced allodynia (von Frey mechanical threshold) ([4]; 45 min after treatment): still statistically significant | reversal of MIA-induced hyperalgesia (paw pressure test) [5, 14]: statistically significant effect | reversal of MIA-induced hyperalgesia (paw pressure test) ([5]; 300 mg/kg, 60 min after administration): still statistically significant | reversal of MIA-induced hyperalgesia (paw pressure test) ([5]; 300 mg/kg, between 15 and 45 min after administration): fully reverted MIA-induced hyperalgesia | motor coordination (number of falls in 30 sec, rotarod) ([1]; 3000 mg/kg p.o., acute): does not alter rats motor coordination | TD25 (dose causing 25% of fallen rats) [6]: 6000 mg/kg | effects on behavioral parameters (Irwin test) ([7]; 1000 mg/kg by subcutaneous route): did not show any effects | effects on behavioral parameters (Irwin test) ([7]; 3000 mg/kg p.o.): did not show any effects | curiosity (number of head plungings) ([8]; 3000 mg/kg p.o.): does not significantly reduce | spontaneous activity (number of movements of each animal on the plane) ([8]; 3000 mg/kg p.o.): does not significantly reduce | tolerability / signs of toxicity, single dose ([9]; iv): substantially well tolerated | tolerability / signs of toxicity, single dose ([9]; po): substantially well tolerated | mortality, symptomatology, normal behavior, repeated dose [10]: did not produce any changes | tolerability, repeated dose [10]: well tolerated | tolerability, repeated dose [11]: well tolerated | nootropic activity, dose-response [12]: tends to lower

CC(C)C[C@H](CN)CC(=O)O [pregabalin]
TD50 [2]: 536 mg/kg

O=C1CN2C(=O)CC[C@H]2N1 (single isomer, unassigned) [(S) enantiomer]
antihyperalgesic activity (paw pressure mechanical threshold) ([13]; 15 min after administration): significant effect

NCC1(CC(=O)O)CCCCC1 [Gabapentin, gabapentin, reference compound]
TD16 (dose causing 16% of fallen rats) [6]: 1000 mg/kg | curiosity (number of head plungings) ([8]; 1000 mg/kg): statistically significant reduction | spontaneous activity (number of movements of each animal on the plane) ([8]; 1000 mg/kg): statistically significant reduction

O=C1CN2C(=O)CC[C@@H]2N1 [(R)-dimiracetam]
antihyperalgesic activity (paw pressure mechanical threshold) ([13]; 15-45 min after administration): significant reduction of the pain mechanical threshold | reversal of MIA-induced hyperalgesia (paw pressure test) [5, 14]: statistically significant effect | reversal of MIA-induced hyperalgesia (paw pressure test) ([5]; 45 min after treatment, dose not restated): still statistically significant

CC[C@@H](C(N)=O)N1CCCC1=O [levetiracetam]
TD50 [2]: 2000 mg/kg
